Data from patent US4018754A, “Novel polypeptides having ACTH-like action” (Shionogi & Co., Ltd., priority 1974, dated 1977).
Read-outs that look alike come from different tables or passages of the source. Where a SMILES comes first, the peptide text is derived from it. Where no end group is shown, it is not given here. [ ]: non-standard residue; d: D form. Aib = CC(C)(N)C(=O)O

Assays:
hypophysectomized rat [1] = test system: hypophysectomized rat
hypophysectomized rat [2] = test system: hypophysectomized rat; remark: listed apart in the source
Experimental: The adrenal-stimulating activity by the intramuscular administration to hypophysectomized rat was also determined, where a peptide preparation was injected into the thigh muscle and a blood sample was collected from the abdominal aorta 30 minutes after the injection. Throughout the experiment, the USP Corticotropin Reference Standard was used as a standard and the production of 11-hydroxycorticosteroids was determined by the fluorophotometric method of Peterson [J. Biol. Chem. 225 25 (1975)].

rats [3] = details: i.m. for 2 days
Experimental: The effect on adrenal growth and thymus involution was determined in the following manner: peptides were intramuscularly injected into rats weighing 100-150 g at a dose of 20μg and 100 μg/rat/day for 2 days, respectively. The rats were then submitted to autopsy 24 hours after the last injection, and then the adrenal and thymus were weighed respectively.

rats [4] = test: Protracted action: time course of plasma 11-OHCS level after i.m. or i.v. injection; format: in vivo; details: rats 100-120 g, 5 μg/rat intramuscularly or intravenously
Experimental: The protracted action of the present polypeptides, e.g., [Aib^1,Lys^17,18,19 ]--ACTH(1-19)--NH2, was studied using rats weighing 100-120 g. Synthetic human ACTH, Cortrosyn--Z^R (zinc complex suspension of ACTH(1-24)--OH)and [Gly^1 ]--ACTH(1-18)--NH2 were used for comparison. The petides were intramuscularly or intravenously injected into rats at a dose of 5 μg/rat, and then the production of 11-hydroxycorticosteroids (11-OHCS) was determined. Time course of 11-OHCS level in the plasma when the peptides were administered intramuscularly and intravenously is shown in FIG. 2, respectively. […] Cortrosyn-Z is the only ACTH preparation which has been used for therapeutical purpose, though it has rather strong melanocyte stimulating activity (c.f. Table 1). […] In FIG. 2, Cortrosyn-Z (suspension of a zinc complex of ACTH(1-24)--OH) is not shown, because the suspension cannot be used through intravenous route.

Experimental for melanocyte: The in vivo melanocyte-stimulating activity was determined according to the method of A. Tanaka described in Endocrinol.

Compound | Melanocyte-stimulating activity in vivo (b), relative potency (melanocyte) | Adrenal-stimulating activity i.v. (relative potency) (hypophysectomized rat [1]; rat, in vivo, iv) | Adrenal-stimulating activity i.m. (relative potency) (hypophysectomized rat [2]; rat, in vivo) | Adrenal-stimulating activity i.v. (relative potency) (hypophysectomized rat [1]; hypophysectomized rat, femoral vein injection, blood sample 30 minutes after injection, USP Corticotropin Reference Standard as standard) | Adrenal-stimulating activity i.m. (relative potency) (hypophysectomized rat [2]; hypophysectomized rat, thigh muscle injection, blood sample 30 minutes after injection, USP Corticotropin Reference Standard as standard) | effects on adrenal growth and thymus involution (in words) (rats [3]) | Protracted adrenal-stimulating action (time course of plasma 11-OHCS level) (rats [4]; Lys^17,18,19 ]--ACTH(1-19)--NH2) | Protracted adrenal-stimulating action (time course of plasma 11-OHCS level) (rats [4])
CSCC[C@H](NC(=O)[C@H](CO)NC(=O)[C@H](Cc1ccc(O)cc1)NC(=O)C(C)(C)N)C(=O)N[C@@H](CCC(=O)O)C(=O)N[C@@H](Cc1c[nH]cn1)C(=O)N[C@@H](Cc1ccccc1)C(=O)N[C@@H](CCCNC(=N)N)C(=O)N[C@@H](Cc1c[nH]c2ccccc12)C(=O)NCC(=O)N[C@@H](CCCCN)C(=O)N1CCC[C@H]1C(=O)N[C@H](C(=O)NCC(=O)N[C@@H](CCCCN)C(=O)N[C@@H](CCCCN)C(=O)N[C@@H](CCCCN)C(=O)N[C@@H](CCCCN)C(N)=O)C(C)C [[Aib^1,Lys^17,18]-ACTH(1-18)-NH2, [Aib^1,Lys^17,18]--ACTH(1-18)--NH2, reference compound] (H-[Aib]YSMEHFRWGKPVGKKKK-NH2) | 0.82 | 9.3 | 9.4 |  |  |  |  | 
CSCC[C@H](NC(=O)[C@H](CO)NC(=O)[C@H](Cc1ccc(O)cc1)NC(=O)C(C)(C)N)C(=O)N[C@@H](CCC(=O)O)C(=O)N[C@@H](Cc1c[nH]cn1)C(=O)N[C@@H](Cc1ccccc1)C(=O)N[C@@H](CCCNC(=N)N)C(=O)N[C@@H](Cc1c[nH]c2ccccc12)C(=O)NCC(=O)N[C@@H](CCCCN)C(=O)N1CCC[C@H]1C(=O)N[C@H](C(=O)NCC(=O)N[C@@H](CCCCN)C(=O)N[C@@H](CCCCN)C(=O)N[C@@H](CCCNC(=N)N)C(=O)N[C@@H](CCCNC(=N)N)C(N)=O)C(C)C [[Aib^1]-ACTH(1-18)-NH2, [Aib^1]--ACTH(1-18)--NH2, reference compound] (H-[Aib]YSMEHFRWGKPVGKKRR-NH2) | 1.00 | 4.1 | 9.9 |  |  |  |  | 
Native ACTH: native corticotropin (ACTH), native hormone used for comparison (SYSMEHFRWGKPVGKKRRPVKVYPNGAEDESAEAFPLEF; Corticotropin; UniProt P01189 138-176, looked up) |  |  |  | 1.0 | 4.0 | very weak |  | 
CSCC[C@H](NC(=O)[C@H](CO)NC(=O)[C@H](Cc1ccc(O)cc1)NC(=O)C(C)(C)N)C(=O)N[C@@H](CCC(=O)O)C(=O)N[C@@H](Cc1c[nH]cn1)C(=O)N[C@@H](Cc1ccccc1)C(=O)N[C@@H](CCCNC(=N)N)C(=O)N[C@@H](Cc1c[nH]c2ccccc12)C(=O)NCC(=O)N[C@@H](CCCCN)C(=O)N1CCC[C@H]1C(=O)N[C@H](C(=O)NCC(=O)N[C@@H](CCCCN)C(=O)N[C@@H](CCCCN)C(=O)N[C@@H](CCCCN)C(=O)N[C@@H](CCCCN)C(=O)N[C@@H](CCCCN)C(N)=O)C(C)C [[Aib^1,Lys^17,18,19]-ACTH(1-19)-NH2, Aib--Tyr--Ser--Met--Glu--His--Phe--Arg--Trp--Gly--Lys--Pro--Val--Gly--Lys- -Lys--Lys--Lys--Lys--NH2] (H-[Aib]YSMEHFRWGKPVGKKKKK-NH2) | 0.11 | 5.7 | 7.8 |  |  |  | very protracted action | 
CSCC[C@H](NC(=O)[C@H](CO)NC(=O)[C@H](Cc1ccc(O)cc1)NC(=O)C(C)(C)N)C(=O)N[C@@H](CCC(=O)O)C(=O)N[C@@H](Cc1c[nH]cn1)C(=O)N[C@@H](Cc1ccccc1)C(=O)N[C@@H](CCCNC(=N)N)C(=O)N[C@@H](Cc1c[nH]c2ccccc12)C(=O)NCC(=O)N[C@@H](CCCCN)C(=O)N1CCC[C@H]1C(=O)N[C@H](C(=O)NCC(=O)N[C@@H](CCCCN)C(=O)N[C@@H](CCCCN)C(=O)N[C@@H](CCCCN)C(=O)N[C@@H](CCCCN)C(=O)N[C@@H](CCCCN)C(N)=O)C(C)C [[Aib^1, Lys^17,18,19]--ACTH(1-19)-- NH2] (H-[Aib]YSMEHFRWGKPVGKKKKK-NH2) |  |  |  |  |  |  |  | protracted to almost the same extent as that produced by Cortrosyn-Z
GYSMEHFRWGKPVGKKRR-NH2 [[Gly^1]-ACTH(1-18)-NH2, [Gly^1]--ACTH(1-18)--NH2, reference compound] | 0.11 | 1.0 | 1.0 |  |  | very weak |  | 
CSCC[C@H](NC(=O)[C@H](CO)NC(=O)[C@H](Cc1ccc(O)cc1)NC(=O)C(C)(C)N)C(=O)N[C@@H](CCC(=O)O)C(=O)N[C@@H](Cc1c[nH]cn1)C(=O)N[C@@H](Cc1ccccc1)C(=O)N[C@@H](CCCNC(=N)N)C(=O)N[C@@H](Cc1c[nH]c2ccccc12)C(=O)NCC(=O)N[C@@H](CCCCN)C(=O)N1CCC[C@H]1C(=O)N[C@H](C(=O)NCC(=O)N[C@@H](CCCCN)C(=O)N[C@@H](CCCCN)C(=O)N[C@@H](CCCCN)C(=O)N[C@@H](CCCCN)C(=O)N[C@@H](CCCCN)C(=O)N[C@@H](CCCCN)C(N)=O)C(C)C [[Aib^1,Lys^17,18,19,20]-ACTH(1-20)-NH2, Aib--Tyr--Ser--Met--Glu--His--Phe--Arg--Trp--Gly--Lys--Pro--Val--Gly--Lys- -Lys--Lys--Lys--Lys--Lys--NH2] (H-[Aib]YSMEHFRWGKPVGKKKKKK-NH2) | 0.15 | 6.3 | 10.7 |  |  |  |  | 
